{"source": "patent EP4813403A1", "about": "“USE OF GLP-1R/GIPR DOUBLE-TARGET AGONIST IN PREPARING ANIMAL DRUG” (Hangzhou Zhongmeihuadong Pharmaceutical Co., Ltd., priority 2023, dated 2025)", "key": {"obese dogs": {"tested_on": "obese dogs", "assay": "Weight loss efficacy in obese dogs", "format": "in vivo", "conditions": "for SFV, change rate in abdominal fat indicators / TFV, change rate in abdominal fat indicators / VFV, change rate in abdominal fat indicators / rSFV, change rate in abdominal fat indicators / rVFV, change rate in abdominal fat indicators: Mean±SEM", "procedure": "In this study, the compound of the present invention was administered subcutaneously to obese dogs multiple times to detect changes in their body weights and elucidate the weight loss effect of the compound. Obese dogs aged 8 months or older with a body condition score (BCS) ≥6 were used in this study. The dogs were housed in appropriately sized cages under controlled environmental conditions with a room temperature of 20-26°C and a relative humidity of 40%-70%, and had free access to food and water. Experimental dogs with similar body weights and BCSs (body weight: 15~24 kg, BCS: 6~9) were randomly divided into four groups (n=6 per group): G1, G2, G3, and G4. Group G1 served as the vehicle control group. […] For Group G2 obese dogs, the first dose (4 nmol/kg) was administered on Day 1 (D1) and Day 8 (D8), adjusted to the second dose (6 nmol/kg) on Day 15 (D15), and further adjusted to the third dose ([…]) on Day 22 (D22), which third dose (96 nmol/kg) was maintained for the subsequent administrations on Day 29 (D29) and Day 36 (D36). For Group G3 obese dogs, the first dose (12 nmol/kg) was administered on D1 and D8, adjusted to the second dose (19 nmol/kg) on D15, and further adjusted to the third dose ([…]) on D22, which third dose (385 nmol/kg) was also maintained for the subsequent administrations on D29 and D36. For Group G4 dogs, the positive control Dirlotapide was administered orally at a dose of 0.5 mg/kg once per day (QD) for 42 consecutive days.\nAfter administration, the body weights of dogs in Group G4 receiving Dirlotapide were measured at a fixed time once daily, while the body weights of dogs in the other groups (G1, G2, and G3) were measured at a fixed time once every 7 days. Food intake was measured once per day after administration. Blood tests for routine and biochemical parameters were conducted before grouping and on D43. Imaging examinations of abdominal fat volume were performed before grouping and from D43 to D45 to measure total abdominal fat volume (TFV) and visceral abdominal fat volume (VFV), and to calculate subcutaneous abdominal fat (SFV). Body condition score (BCS), body mass index (BMI), and abdominal circumference (AC) were measured once a week. The data were statistically analyzed using ANOVA. If ANOVA was statistically significant (p < 0.05) and variances were homogeneous, Tukey's test was used for intergroup comparison. If variances were heterogeneous, Dunnet's T3 test was used. Results were expressed as mean ± standard error of the mean (Mean ± SEM). The significance level was set at 0.05, and both statistical and biological significance were considered in the analysis."}, "cat GIPR": {"tested_on": "cat GIPR", "assay": "Agonistic activity on GIPR of different species (LANCE Ultra cAMP assay): cat", "format": "cell-based", "conditions": "ratio of EC50 value of other species to human EC50 value", "procedure": "CHO-K1 cells were seeded in a 6-well plate at 0.6×10^6 cells/well and incubated overnight in an incubator at a temperature of 37 °C and a carbon dioxide concentration of 5%. The next day, CHO-K1 cell media were replaced. Then two tubes A and B were prepared for each plasmid. 100 µL Opti-MEM was added to tube A, then 4 µL Lipofectamine™ 3000 was added and mixed uniformly. 100 µL Opti-MEM was firstly added to tube B, then 2 µg of one of the plasmids (human GLP-1R-pcDNA5 (+) plasmid, cat GLP-1R-pcDNA5 (+) plasmid, human GIPR-pcDNA5 (+) plasmid, cat GIPR-pcDNA5 (+) plasmid) was added and mixed uniformly, and 4 µL P3000™ was added to tube B and mixed uniformly (the ratio of plasmid to transfection reagent was 1 µg: 2 µL). The diluted solution in tube A was added to the diluted solution in tube B, mixed evenly, and incubated at room temperature for 15 minutes. […]\n18-20 hours after transfection, human GLP-1R-CHO, cat GLP-1R-CHO, human GIPR-CHO, cat GIPR-CHO cells were resuspended in 1×Casein Stimulation Buffer (HBSS, 5 mM HEPES, 0.5 mM IBMX, 0.1% casein, pH7.4), and seeded into a 384-well cell culture plate at 9 µL/well (cell numbers being 2000, 2000, 1000, 2000 cells/well, respectively). […] The readings at 665 nm and 620 nm were determined with a 330 nm excitation light on a microplate reader. The 665 nm/620 nm reading ratio was calculated. […]"}, "[1]": {"conditions": "D43, 4/6/96 nmol/kg s.c. QW, six administrations"}, "[2]": {"conditions": "D43, 12/19/385 nmol/kg s.c. QW, six administrations"}}, "data": [{"smiles": "CC[C@H](C)[C@H](NC(=O)C(C)(C)NC(=O)[C@H](Cc1ccc(O)cc1)NC(=O)[C@H](CC(=O)O)NC(=O)[C@H](CO)NC(=O)[C@@H](NC(=O)C(C)(Cc1ccccc1)NC(=O)[C@@H](NC(=O)CNC(=O)[C@H](CCC(=O)O)NC(=O)C(C)(C)NC(=O)[C@@H](N)Cc1ccc(O)cc1)[C@@H](C)O)[C@@H](C)O)C(=O)NC(C)(C)C(=O)N[C@@H](CC(C)C)C(=O)N[C@@H](CC(=O)O)C(=O)N[C@@H](CCCCN)C(=O)N[C@@H](CCC(N)=O)C(=O)N[C@@H](C)C(=O)N[C@@H](CCC(N)=O)C(=O)N[C@@H](C)C(=O)N[C@@H](CCC(=O)O)C(=O)N[C@@H](Cc1ccccc1)C(=O)N[C@H](C(=O)N[C@@H](CCCCNC(=O)COCCOCCNC(=O)COCCOCCNC(=O)COCCOCCNC(=O)CC[C@H](NC(=O)CCCCCCCCCCCCCCCCCCCCC(=O)O)C(=O)O)C(=O)N[C@@H](Cc1c[nH]c2ccccc12)C(=O)N[C@@H](CC(C)C)C(=O)N[C@@H](CC(C)C)C(=O)N[C@@H](CCCCN)C(=O)NCC(=O)NCC(=O)N1CCC[C@H]1C(=O)N[C@@H](CO)C(=O)N[C@@H](CO)C(=O)NCC(=O)N[C@@H](C)C(=O)N1CCC[C@H]1C(=O)N1CCC[C@H]1C(=O)N1CCC[C@H]1C(=O)N[C@@H](CO)C(=O)N[C@@H](CCCCN)C(N)=O)C(C)C", "note": "(some centres unmarked) [Compound P016]", "values": [{"measurement": "SFV, change rate in abdominal fat indicators", "setting": "obese dogs; [1]", "value": "-18.11±4.49"}, {"measurement": "TFV, change rate in abdominal fat indicators", "setting": "obese dogs; [1]", "value": "-16.16±5.88"}, {"measurement": "VFV, change rate in abdominal fat indicators", "setting": "obese dogs; [1]", "value": "-10.81±10.19"}, {"measurement": "rSFV, change rate in abdominal fat indicators", "setting": "obese dogs; [1]", "value": "4.80±6.52"}, {"measurement": "rVFV, change rate in abdominal fat indicators", "setting": "obese dogs; [1]", "value": "-1.51±3.56"}, {"measurement": "SFV, change rate in abdominal fat indicators", "setting": "obese dogs; [2]", "value": "-15.14±4.56"}, {"measurement": "TFV, change rate in abdominal fat indicators", "setting": "obese dogs; [2]", "value": "-13.00±4.47"}, {"measurement": "VFV, change rate in abdominal fat indicators", "setting": "obese dogs; [2]", "value": "-9.42±5.39"}, {"measurement": "rSFV, change rate in abdominal fat indicators", "setting": "obese dogs; [2]", "value": "4.19±4.19"}, {"measurement": "rVFV, change rate in abdominal fat indicators", "setting": "obese dogs; [2]", "value": "-2.41±2.12"}, {"measurement": "effective dose for weight loss", "setting": "obese dogs; s.c. QW escalating doses", "value": 96, "unit": "nmol/kg"}, {"measurement": "effective dose for weight loss", "setting": "obese dogs; s.c. QW escalating doses, equivalent of the nmol/kg dose", "value": 0.5, "unit": "mg/kg"}, {"measurement": "maximum weight loss", "setting": "obese dogs; s.c. QW escalating doses, six administrations", "value": 9.51, "unit": "%"}, {"measurement": "GIPR EC50 ratio", "setting": "cat GIPR", "value": 3.59}]}]}
